Patent US11384071B2, “Inhibitors of mechanotransduction to treat pain and modulate touch perception” (Max-Delbrück-Centrum für Molekulare Medizin in der …, priority 2016, dated 2022)

What was measured:
ASIC3 = assay: pH-gated ASIC3 currents and stomatin modulation in CHO cells; format: cell-based
Experimental: To test the effect of compounds on stomatin modulation of ASIC currents CHO cells were transfected with vectors encoding Stomatin and ASIC3, in a ratio of 4:1 using lipofectamine, as per manufacturer's instructions. Cells were incubated with 20 μM OB-1 for 3 hours in extracellular buffer (see above), and OB-1 was maintained in the media during electrophysiological experiments. ASIC3 channels were gated by applying solutions of pH6 and pH4, and both the transient and sustained peak current density was measured.

[1] = system: cutaneous sensory afferents of the saphenous nerve; assay: Ex vivo skin-nerve preparation after local injection into the paw; format: in vivo, mouse
Experimental: Mice were killed by CO2 inhalation for 2-4 min followed by cervical dislocation. The saphenous nerve and the shaved skin of the hind limb were dissected free and placed in an organ bath. The chamber was perfused with a synthetic interstitial fluid (SIF buffer) the composition of which was (in mM): NaCl, 123; KCl, 3.5; MgSO4, 0.7; NaH2PO4, 1.7; CaCl2), 2.0; sodium gluconate, 9.5; glucose, 5.5; sucrose, 7.5; and HEPES, 10 at a pH of 7.4. The skin was placed with the corium side up in the organ bath. The nerve was placed in an adjacent chamber on a mirror to aid fiber teasing under a stereomicroscope. Fine filaments were teased from the saphenous nerve and placed on the recording electrode.
For the electrical search protocol a micro electrode (1 MΩ) was gently maneuvered to contact the epineurium of the nerve trunk and an electrical stimulation was delivered at a one second interval with square wave pulses of […] duration. […] The electrical nerve stimulation was done at 2 distant sites of the saphenous nerve to trace electrically identified units to their receptive fields. Mechanical sensitivity of single units was tested by mechanical stimulation with a glass rod. For the mechanical search protocol, single units were identified by gentle mechanical stimulation of their receptive field with a glass rod. Mechanically-evoked spikes were visualized and the template saved in an oscilloscope. Then, a sharp tungsten metal electrode was placed in the receptive field and an electrically evoked spike was elicited with suprathreshold current pulses and the electrical latency, the time from the stimulation artifact to spike, was recorded. The distance between the stimulating and recording electrode was designated as the conduction distance. For each isolated fiber the conduction velocity was calculated by dividing conduction distance over electrical latency for the spike.
A computer-controlled nanomotor (Kleindiek, Reutlingen, Germany) was used to apply controlled displacement stimuli of known amplitude and velocity. The probe was a stainless steel metal rod and the diameter of the flat circular contact area was 0.8 mm containing a force transducer (Kleindiek, Reutlingen, Germany). The signal driving the movement of the linear motor and raw electrophysiological data were collected with a Powerlab 4.0 system (ADInstruments) and spikes were discriminated off-line with the spike histogram extension of the software.
We made subcutaneous injections of the OB-1 compound (250-500 pmol per paw) into the hairy skin of the mouse lateral foot innervated by the saphenous nerve and recorded from sensory afferents 3 h later using an ex vivo skin—nerve preparation^5,25.

head-restrained mice = assay: Tactile perception task for head-restrained mice; format: in vivo, mouse
Source text: Male C57B16/J mice were anaesthetized and a lightweight metal headholder was implanted to the skull using glue (Loctite 401, Henkel) and dental cement (Paladur®, Heraeus). Mice were habituated to the head-restraint and the behavioral setup over 1-2 days. Mouse licking and forepaw behavior was monitored with three custom-made capacitance sensors: a licking sensor, a rest sensor and a target sensor that provided an online monitor of paw or tongue contact. The rest sensor was a ball (diameter: 6 mm) mounted on a glass rod of 30 mm length, glued to a piezoelectric bender (PICMA® Multilayer Piezo Bender Actuator, Physik Instrumente). The piezo generated a 30 ms cosine tactile pulse via a piezo amplifier system (Sigmann Elektronik). A urethane foam buffer (Poron®, Rogers Cooperation) was placed between the piezo and the supporting platform to reduce ringing oscillations after the stimulus pulse. The stimulus amplitude was calibrated with a high-speed (300 Hz) camera (Dalsa Genie HM640). […] Mice were water restricted and given approximately 4×0.6 μl water rewards on condition of touching the target sensor within a defined latency from stimulus onset and licking the water dispenser. The target sensor moved to the start position at the start of a new trial and away from the mouse at the end of the trial. Inter-trial interval was randomized between 7 and 13 s. […]

naive mice = assay: Paw withdrawal threshold and radiant heat latency in naive mice; format: in vivo, mouse; conditions: intraplantar 250-500 pmol per paw
Source text: (§1) Mice were allowed to habituate to the testing apparatus (acrylic chambers 10×10 cm in size, suspended above a wired mesh grid) one hour prior to behavioral testing. Only once the subject was at rest and not moving, calibrated von-Frey hair monofilaments (Aesthesio® set of 20 monofilaments, Ugo Basil) were applied to the plantar surface of the hind paw in order to deliver target forces from 0.008 grams to 4 grams increasing in an approximately logarithmic scale. A single stimulus indicated by a slight bending of the filament lasted for two seconds unless the mouse withdrew its paw. In order to measure mechanosensitivity the up-and-down method described by Chaplan^13 was adapted as follows: Testing began with a filament delivering a target force of 0.4 g, but filaments were applied three times. A positive response was noted if the subject withdrew the paw to all three filament applications, so that the successively smaller filament was presented next. […] Paw withdrawal thresholds were calculated as median of 23 to 30 determined turning points of the particular force stimuli applied to the subject.
Drug injections of OB-1 or DMSO alone were dissolved in Ringer's solution (in mM: 135 NaCl, 5 KCl, 5 HEPES, 1.8 CaCl2), 1 MgCl2) to make the OB-1 and vehicle solution. […]

NGF-injected mice = assay: NGF-induced hyperalgesia; format: in vivo, mouse
Source text: as §1

[2] = system: cutaneous sensory afferents of the saphenous nerve; assay: Ex vivo skin-nerve preparation after local injection into the paw; format: in vivo, mouse; conditions: recordings 24 h after treatment

- proportion of mechanoreceptor types and mechanosensitivity of remaining Aβ-fiber mechanoreceptors (RAMs, SAMs) ([1]; OB-1 treated skin vs controls): unchanged
SMILES: CCOC(=O)c1c(-c2ccccc2)oc2ccc(Oc3c([N+](=O)[O-])ncn3C)cc12 [OB-1, Ethyl 5-((1-methyl-4-nitro-1H-imidazol-5-yl)oxy)-2-phenylbenzofuran-3-carboxylate]
- ASIC3-mediated pH-evoked currents (transient and sustained) (ASIC3; CHO cells expressing ASIC3, 20 μm): no effect
- negative modulation of ASIC3 mediated currents by mouse stomatin (ASIC3; CHO cells, 20 μM, 3 hours): no detectable effect
- fibers for which no mechanosensitive receptive field could be found (printed Aβ-fibers) ([1]; 8/38 fibers vs 5% in controls, not significantly different): 21%
- Aβ-fibers lacking a mechanosensitive receptive field ([1]; 3 h after 250-500 pmol per paw s.c., 19/44 fibers, vehicle less than 7%): over 40%
- proportion of C-fibers that lack a mechanosensitive receptive field ([1]; 3 h after local treatment): no change
- firing rates of C-mechanonociceptors (C-Ms) to suprathreshold mechanical stimuli ([1]; OB-1 treated skin): not significantly attenuated
- mechanical threshold for activation of C-mechanoheat fibers ([1]; OB-1 treated skin, vehicle 106.9±17.4 mN): 196.5±35.6 mN
- stimulus response function of C-MH fibers ([1]; ascending displacements 32-1024 μm, vs vehicle): significantly less responsive
- mechanosensitivity of A-mechanonociceptors (AM) ([1]; displacements 32-1024 μm): no changes
- proportion of Aβ-fibers insensitive to mechanical stimuli ([1]; female mice as in male mice): almost identical proportion
- mean force thresholds for C-M fiber ([1]; vehicle vs OB-1): not different
- psychometric curve of tactile stimulus detection (head-restrained mice; 11 nmol per paw into forepaw, stimulus strengths 125-275 μm): shifted to the right
- time for detection rates of threshold stimuli to return to pre-treatment levels (head-restrained mice; after drug treatment): 1 to 4 days
- paw withdrawal thresholds to mechanical stimuli (naive mice): no change
- withdrawal latency for radiant heat stimuli (naive mice): no change
- mechanical hypersensitivity after NGF (NGF-injected mice; local intraplantar): not reversed
- NGF-induced thermal hyperalgesia (NGF-injected mice; local treatment, systemic NGF-injection): not alleviate
- mechanoreceptor silencing effect, reversibility [2]: completely reversible
